From patent US8993604B2, “Treatment and prevention of dengue virus infections” (Siga Technologies, Inc., priority 2009, dated 2015)
pEC50: −log10 of the molar value.

What follows are compounds tested on Dengue-2 (Strain New Guinea C) (assay: Viral yield assay in Vero cells). Settings: Dengue virus, Vero, 48 h, read-out: Activity (anti-dengue 2 viral activity, EC50 class).
Type: cell-based
Method: Compounds that were active in the primary screen were tested for activity in viral yield assays. […] Vero cells in 12-well plates were infected with dengue-2 virus at a multiplicity of infection (MOI) of 0.1, treated with compound (or DMSO as a control), incubated at 37° C., harvested 48 hours post infection and titered on Vero cells as described above. The EC50 was calculated through ExcelFit. Activities against other serotypes of dengue virus were determined in a similar way.

Compound	pEC50
O=C(Nc1ccc(-c2nc3ccccc3s2)cc1)c1ccc(S(=O)(=O)N2CCCCC2)cc1 [Compound 17, N-(4-Benzothiazol-2-yl-phenyl)-4-(piperidine-1-sulfonyl)-benzamide]	4.60 to 5.00

Same assay, conditions: Dengue virus; Vero cells, MOI 0.1, harvested 48 hours post infection; read-out: Activity (anti-dengue 2 viral activity, EC50 class)

Compound	pEC50
COc1ccc(C(=O)Nc2ccc(-c3nc4ccccc4s3)c(O)c2)cc1 [Compound 1, N-(4-Benzothiazol-2-yl-3-hydroxy-phenyl)-4-methoxy-benzamide]	> 6.00
O=C(Nc1ccc(-c2nc3ccccc3s2)cc1)c1ccc2c(c1)OCCO2 [Compound 2, 2,3-Dihydro-benzo[1,4]dioxine-6-carboxylic acid (4-benzothiazol-2-yl-phenyl)-amide]	> 6.00
COc1ccccc1C(=O)Nc1cccc(-c2nc3ccccc3s2)c1 [Compound 4, N-(3-Benzothiazol-2-yl-phenyl)-2-methoxy-benzamide]	> 6.00
COc1ccc(C(=O)Nc2ccc(-c3nc4ccccc4s3)c(Cl)c2)cc1OC [Compound 5, N-(4-Benzothiazol-2-yl-3-chloro-phenyl)-3,4-dimethoxy-benzamide]	> 6.00
COc1ccc(C(=O)Nc2ccc(-c3nc4ccccc4s3)c(Cl)c2)cc1 [Compound 6, N-(4-Benzothiazol-2-yl-3-chloro-phenyl)-4-methoxy-benzamide]	> 6.00
Cc1ccc2nc(-c3ccc(NC(=O)c4ccc(N(C)C)cc4)cc3)sc2c1 [Compound 7, 4-Dimethylamino-N-[4-(6-methyl-benzothiazol-2-yl)-phenyl]-benzamide]	> 6.00
Cc1ccc(C(=O)O)c(C(=O)Nc2ccc(-c3nc4ccc(C)cc4s3)cc2)c1 [Compound 8, 4-Methyl-N-[4-(6-methyl-benzothiazol-2-yl)-phenyl]-phthalamic acid]	> 6.00
Cc1ccc2nc(-c3ccc(NC(=O)c4cccc(S(=O)(=O)N5CCN(C)CC5)c4)cc3)sc2c1 [Compound 9, N-[4-(6-Methyl-benzothiazol-2-yl)-phenyl]-3-(4-methyl-piperazine-1-sulfonyl)-benzamide]	> 6.00
CN(C)c1ccccc1C(=O)Nc1ccc(-c2nc3ccccc3s2)cc1 [Compound 10, N-(4-Benzothiazol-2-yl-phenyl)-2-dimethylamino-benzamide]	> 6.00
COc1ccccc1C(=O)Nc1ccc(-c2nc3ccccc3s2)c(Cl)c1 [Compound 11, N-(4-Benzothiazol-2-yl-3-chloro-phenyl)-2-methoxy-benzamide]	> 6.00
Cc1cccc(C(=O)Nc2cccc(-c3nc4ccccc4s3)c2)c1 [Compound 12, N-(3-Benzothiazol-2-yl-phenyl)-3-methyl-benzamide]	5.00 to 6.00
COc1cccc(OC)c1C(=O)Nc1cccc(-c2nc3ccccc3s2)c1 [Compound 13, N-(3-Benzothiazol-2-yl-phenyl)-2,6-dimethoxy-benzamide]	5.00 to 6.00
COc1ccc(C(=O)Nc2ccccc2-c2nc3ccccc3s2)cc1OC [Compound 14, N-(2-Benzothiazol-2-yl-phenyl)-3,4-dimethoxy-benzamide]	5.00 to 6.00
COc1ccc(-c2nc3ccccc3s2)cc1NC(=O)c1ccc([N+](=O)[O-])cc1Cl [Compound 15, N-(5-Benzothiazol-2-yl-2-methoxy-phenyl)-2-chloro-4-nitro-benzamide]	5.00 to 6.00
COc1c(C)cccc1C(=O)Nc1ccccc1-c1nc2ccccc2s1 [Compound 16, N-(2-Benzothiazol-2-yl-phenyl)-2-methoxy-3-methyl-benzamide]	5.00 to 6.00
O=C(Nc1cccc(-c2nc3ccccc3s2)c1)c1ccc(S(=O)(=O)N2CCCC2)cc1 [Compound 20, N-(3-Benzothiazol-2-yl-phenyl)-4-(pyrrolidine-1-sulfonyl)-benzamide]	4.60 to 5.00
O=C(Nc1ccc(-c2nc3ccccc3s2)cc1)c1ccccc1F [Compound 21, N-(4-Benzothiazol-2-yl-phenyl)-2-fluoro-benzamide]	4.60 to 5.00
O=C(Nc1ccc(-c2nc3ccccc3s2)c(O)c1)c1ccc(F)cc1 [Compound 22, N-(4-Benzothiazol-2-yl-3-hydroxy-phenyl)-4-fluoro-benzamide]	4.60 to 5.00
